According to PubChem BioAssay AID330 (DTP/NCI, 2004):
“And” between values parts separate entries of the source, which are not always exact repeats. Equal entries are not always repeated. Toxic doses and inconclusive results are not listed. Rule for the calls: active = survival T/C of 150% or more; inactive = T/C below 125% in these data.

System: P388 leukemia ip, CD2F1 mice, survival T/C
Experiment: NCI In Vivo Anticancer Drug Screen. Data for tumor model P388 Leukemia (intraperitoneal) in CD2F1 (CDF1) mice
Conditions: endpoint: median survival time, higher = longer survival
In short: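 Mice carrying the transplanted tumor received test compound or vehicle. Survival was recorded in each group, and the value is the treated-group measurement divided by that of the vehicle-treated control group.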

[1] = dose: 50.0 mg/kg/injection, schedule: Q01DX009 (ip), vehicle: saline with Tween-80
[2] = dose: 100.0 mg/kg/injection, schedule: Q01DX009 (ip), vehicle: saline with Tween-80
[3] = dose: 200.0 mg/kg/injection, schedule: Q01DX009 (ip), vehicle: saline with Tween-80
[4] = dose: 100.0 mg/kg/injection, schedule: Q01DX001 (ip), vehicle: Klucel (hydroxypropylcellulose) (HPC)
[5] = dose: 200.0 mg/kg/injection, schedule: Q01DX001 (ip), vehicle: Klucel (hydroxypropylcellulose) (HPC)
[6] = dose: 400.0 mg/kg/injection, schedule: Q01DX001 (ip), vehicle: Klucel (hydroxypropylcellulose) (HPC)
[7] = dose: 60.0 mg/kg/injection, schedule: Q01DX005 (ip), vehicle: saline with Tween-80
[8] = dose: 120.0 mg/kg/injection, schedule: Q01DX005 (ip), vehicle: saline with Tween-80
[9] = dose: 240.0 mg/kg/injection, schedule: Q01DX005 (ip), vehicle: saline with Tween-80

Measured: T/C

CN(C)c1nc(N(C)C)nc(N(C)C)n1
inactive: dose: 6.25 mg/kg/injection, schedule: Q01DX009 (ip), vehicle: saline with Tween-80 110 % of control | dose: 12.5 mg/kg/injection, schedule: Q01DX009 (ip), vehicle: saline with Tween-80 105 % of control and 108 % of control and 96 % of control | dose: 20.0 mg/kg/injection, schedule: Q01DX009 (ip), vehicle: saline with Tween-80 108 % of control | dose: 25.0 mg/kg/injection, schedule: Q01DX001 (ip), vehicle: Klucel (hydroxypropylcellulose) (HPC) 103 % of control and 104 % of control | dose: 25.0 mg/kg/injection, schedule: Q01DX009 (ip), vehicle: saline with Tween-80 98 % of control and 103 % of control and 107 % of control | dose: 25.0 mg/kg/injection, schedule: Q04DX002 (ip), vehicle: Klucel (hydroxypropylcellulose) (HPC) 100 % of control and 112 % of control | dose: 25.0 mg/kg/injection, schedule: Q04DX003 (ip), vehicle: Klucel (hydroxypropylcellulose) (HPC) 110 % of control and 115 % of control | dose: 40.0 mg/kg/injection, schedule: Q01DX009 (ip), vehicle: saline with Tween-80 109 % of control | [1] 104 % of control and 109 % of control (2×) | dose: 75.0 mg/kg/injection, schedule: Q01DX005 (ip), vehicle: Klucel (hydroxypropylcellulose) (HPC) 105 % of control | dose: 80.0 mg/kg/injection, schedule: Q01DX009 (ip), vehicle: saline with Tween-80 111 % of control | [2] 114 % of control and 119 % of control and 97 % of control | dose: 150.0 mg/kg/injection, schedule: Q01DX005 (ip), vehicle: Klucel (hydroxypropylcellulose) (HPC) 105 % of control | dose: 160.0 mg/kg/injection, schedule: Q01DX009 (ip), vehicle: saline with Tween-80 118 % of control | [3] 108 % of control

Cc1ccc(NCCNCCO)c2c(=O)c3ccccc3sc12
active: dose: 100.0 mg/kg/injection, schedule: Q01DX005 (ip), vehicle: Klucel (hydroxypropylcellulose) (HPC) 158 % of control | dose: 200.0 mg/kg/injection, schedule: Q01DX005 (ip), vehicle: Klucel (hydroxypropylcellulose) (HPC) 155 % of control
inactive: dose: 3.75 mg/kg/injection, schedule: Q01DX009 (ip), vehicle: water 100 % of control | dose: 7.5 mg/kg/injection, schedule: Q01DX009 (ip), vehicle: distilled water + Tween-80 113 % of control | dose: 7.5 mg/kg/injection, schedule: Q01DX009 (ip), vehicle: water 99 % of control | dose: 12.5 mg/kg/injection, schedule: Q01DX005 (ip), vehicle: other 113 % of control | dose: 15.0 mg/kg/injection, schedule: Q01DX009 (ip), vehicle: distilled water + Tween-80 120 % of control | dose: 15.0 mg/kg/injection, schedule: Q01DX009 (ip), vehicle: water 123 % of control | dose: 25.0 mg/kg/injection, schedule: Q01DX005 (ip), vehicle: other 120 % of control | dose: 50.0 mg/kg/injection, schedule: Q01DX005 (ip), vehicle: Klucel (hydroxypropylcellulose) (HPC) 119 % of control

CC(=O)CC(=O)c1ccccc1.CC(=O)CC(=O)c1ccccc1.[CH3][Sn][CH3]
inactive: [4] 95 % of control | [5] 99 % of control | [6] 96 % of control

O=c1[nH]nc(-c2ccccc2)c2c1[nH]c1ccccc12
inactive: [7] 93 % of control | [8] 96 % of control | [9] 86 % of control

O=C(O)CSCC(=O)Nc1cc(C(F)(F)F)ccc1Cl
inactive: [7] 95 % of control | [8] 100 % of control | [9] 96 % of control

CCOC(=O)CCC(=O)Oc1cccc2c1C(=O)c1c(O)cccc1C2=O
inactive: dose: 60.0 mg/kg/injection, schedule: Q01DX005 (ip), vehicle: Klucel (hydroxypropylcellulose) (HPC) 91 % of control | dose: 120.0 mg/kg/injection, schedule: Q01DX005 (ip), vehicle: Klucel (hydroxypropylcellulose) (HPC) 95 % of control | dose: 240.0 mg/kg/injection, schedule: Q01DX005 (ip), vehicle: Klucel (hydroxypropylcellulose) (HPC) 97 % of control

C=CCC(NC(=O)c1ccccc1)C(=O)O (stereo not drawn)
inactive: [1] 100 % of control | [2] 98 % of control | [3] 95 % of control

CCP(c1ccccc1)c1ccccc1
inactive: [4] 100 % of control | dose: 100.0 mg/kg/injection, schedule: Q01DX001 (ip), vehicle: saline 107 % of control | [5] 98 % of control | dose: 200.0 mg/kg/injection, schedule: Q01DX001 (ip), vehicle: saline 96 % of control | [6] 103 % of control | dose: 400.0 mg/kg/injection, schedule: Q01DX001 (ip), vehicle: saline 96 % of control | dose: 600.0 mg/kg/injection, schedule: Q01DX001 (ip), vehicle: Klucel (hydroxypropylcellulose) (HPC) 102 % of control

CC(CCC(=O)O)(c1cc(Br)c(O)c(Br)c1)c1cc(Br)c(O)c(Br)c1
inactive: dose: 100.0 mg/kg/injection, schedule: Q04DX003 (ip), vehicle: other 100 % of control | dose: 200.0 mg/kg/injection, schedule: Q04DX003 (ip), vehicle: other 100 % of control | dose: 400.0 mg/kg/injection, schedule: Q04DX003 (ip), vehicle: other 100 % of control

CCOC(=O)c1cc2c(oc1=O)-c1cc(C)ccc1OC2C (stereo not drawn)
inactive: [7] 104 % of control | [8] 110 % of control | [9] 105 % of control
